From patent US11020399B2, “Intermediates useful in the synthesis of compounds as modulators of protein kinases” (Rhizen Pharmaceuticals SA, priority 2011, dated 2021)

Assays:
PI3kγ = PI3kγ (Homo sapiens, UniProt P48736); test: Fluorescent (HTRF) determination of PI3 kinase enzyme activity, PI3Kγ; type: biochemical; conditions: for inhibition at 0.3 µM: 300 nM (Examples 1-59)
How it was run: (§1)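 Human PI3K isoforms were preincubated with compound for 10 min at room temperature in 10 mM MgCl2, 5 mM DTT, 1.38 μM PIP2, then reacted 30 min after adding 400 μM ATP stock. PIP3 was read by HTRF (665/620 nm). Percent inhibition used blank and enzyme controls; single-point testing was at 1 uM for α/β and 0.3 or 0.1 uM for γ/δ.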

PI3kα = PI3kα (Homo sapiens, UniProt P42336); test: Fluorescent (HTRF) determination of PI3 kinase enzyme activity, PI3Kα; type: biochemical; conditions: 1 uM
Sequence of PI3kα (P42336 whole entry): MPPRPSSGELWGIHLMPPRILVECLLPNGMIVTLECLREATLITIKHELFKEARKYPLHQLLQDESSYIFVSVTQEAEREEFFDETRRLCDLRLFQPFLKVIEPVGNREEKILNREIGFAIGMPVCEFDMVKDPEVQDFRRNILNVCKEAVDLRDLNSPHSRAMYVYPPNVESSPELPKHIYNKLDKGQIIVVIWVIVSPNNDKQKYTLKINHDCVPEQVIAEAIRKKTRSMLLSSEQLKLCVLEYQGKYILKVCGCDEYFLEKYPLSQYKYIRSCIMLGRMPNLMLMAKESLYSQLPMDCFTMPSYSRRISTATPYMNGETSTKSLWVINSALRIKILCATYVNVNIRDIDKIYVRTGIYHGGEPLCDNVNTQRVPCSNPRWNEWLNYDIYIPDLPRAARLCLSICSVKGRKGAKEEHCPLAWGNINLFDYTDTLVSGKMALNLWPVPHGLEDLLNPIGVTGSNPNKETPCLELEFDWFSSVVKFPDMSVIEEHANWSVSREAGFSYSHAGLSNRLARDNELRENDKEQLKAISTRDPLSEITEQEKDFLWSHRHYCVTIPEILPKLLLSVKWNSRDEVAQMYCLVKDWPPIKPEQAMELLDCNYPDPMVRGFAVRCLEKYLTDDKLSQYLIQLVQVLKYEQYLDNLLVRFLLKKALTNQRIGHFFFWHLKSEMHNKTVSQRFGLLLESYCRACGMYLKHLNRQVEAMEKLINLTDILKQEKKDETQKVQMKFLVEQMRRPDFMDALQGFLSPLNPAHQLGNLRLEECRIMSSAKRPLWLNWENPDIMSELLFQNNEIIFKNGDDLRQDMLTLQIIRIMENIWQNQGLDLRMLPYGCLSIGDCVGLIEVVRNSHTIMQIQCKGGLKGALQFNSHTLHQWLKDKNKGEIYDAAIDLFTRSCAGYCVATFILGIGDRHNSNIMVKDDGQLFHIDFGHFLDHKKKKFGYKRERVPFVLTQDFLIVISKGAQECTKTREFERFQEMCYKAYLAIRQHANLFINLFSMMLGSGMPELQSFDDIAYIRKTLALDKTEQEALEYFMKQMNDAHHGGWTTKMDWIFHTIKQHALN
Sequence of PI3kα (P27986 whole entry partner): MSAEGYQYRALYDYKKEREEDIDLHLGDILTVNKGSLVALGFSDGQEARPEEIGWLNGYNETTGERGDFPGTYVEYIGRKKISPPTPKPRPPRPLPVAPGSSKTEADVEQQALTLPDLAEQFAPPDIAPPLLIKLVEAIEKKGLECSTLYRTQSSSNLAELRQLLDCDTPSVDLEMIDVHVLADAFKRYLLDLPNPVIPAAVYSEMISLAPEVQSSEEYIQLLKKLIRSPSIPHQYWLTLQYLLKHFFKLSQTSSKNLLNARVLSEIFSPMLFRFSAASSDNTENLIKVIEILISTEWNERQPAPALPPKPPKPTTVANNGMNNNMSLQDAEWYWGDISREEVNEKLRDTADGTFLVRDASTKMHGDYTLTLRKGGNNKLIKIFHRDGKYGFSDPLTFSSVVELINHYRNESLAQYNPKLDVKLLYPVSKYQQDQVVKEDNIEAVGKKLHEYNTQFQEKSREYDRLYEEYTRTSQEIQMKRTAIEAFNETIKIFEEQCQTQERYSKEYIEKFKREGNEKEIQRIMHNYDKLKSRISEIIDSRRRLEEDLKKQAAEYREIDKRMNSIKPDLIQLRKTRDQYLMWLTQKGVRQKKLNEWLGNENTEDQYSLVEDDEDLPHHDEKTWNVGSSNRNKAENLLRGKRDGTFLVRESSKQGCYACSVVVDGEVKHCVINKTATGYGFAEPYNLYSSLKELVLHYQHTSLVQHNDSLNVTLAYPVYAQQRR
How it was run: as §1

PI3kδ = PI3kδ (Homo sapiens, UniProt O00329); test: Fluorescent (HTRF) determination of PI3 kinase enzyme activity, PI3Kδ; type: biochemical; conditions: for inhibition at 0.3 µM: 300 nM (Examples 1-59)
Sequence of PI3kδ (O00329 whole entry): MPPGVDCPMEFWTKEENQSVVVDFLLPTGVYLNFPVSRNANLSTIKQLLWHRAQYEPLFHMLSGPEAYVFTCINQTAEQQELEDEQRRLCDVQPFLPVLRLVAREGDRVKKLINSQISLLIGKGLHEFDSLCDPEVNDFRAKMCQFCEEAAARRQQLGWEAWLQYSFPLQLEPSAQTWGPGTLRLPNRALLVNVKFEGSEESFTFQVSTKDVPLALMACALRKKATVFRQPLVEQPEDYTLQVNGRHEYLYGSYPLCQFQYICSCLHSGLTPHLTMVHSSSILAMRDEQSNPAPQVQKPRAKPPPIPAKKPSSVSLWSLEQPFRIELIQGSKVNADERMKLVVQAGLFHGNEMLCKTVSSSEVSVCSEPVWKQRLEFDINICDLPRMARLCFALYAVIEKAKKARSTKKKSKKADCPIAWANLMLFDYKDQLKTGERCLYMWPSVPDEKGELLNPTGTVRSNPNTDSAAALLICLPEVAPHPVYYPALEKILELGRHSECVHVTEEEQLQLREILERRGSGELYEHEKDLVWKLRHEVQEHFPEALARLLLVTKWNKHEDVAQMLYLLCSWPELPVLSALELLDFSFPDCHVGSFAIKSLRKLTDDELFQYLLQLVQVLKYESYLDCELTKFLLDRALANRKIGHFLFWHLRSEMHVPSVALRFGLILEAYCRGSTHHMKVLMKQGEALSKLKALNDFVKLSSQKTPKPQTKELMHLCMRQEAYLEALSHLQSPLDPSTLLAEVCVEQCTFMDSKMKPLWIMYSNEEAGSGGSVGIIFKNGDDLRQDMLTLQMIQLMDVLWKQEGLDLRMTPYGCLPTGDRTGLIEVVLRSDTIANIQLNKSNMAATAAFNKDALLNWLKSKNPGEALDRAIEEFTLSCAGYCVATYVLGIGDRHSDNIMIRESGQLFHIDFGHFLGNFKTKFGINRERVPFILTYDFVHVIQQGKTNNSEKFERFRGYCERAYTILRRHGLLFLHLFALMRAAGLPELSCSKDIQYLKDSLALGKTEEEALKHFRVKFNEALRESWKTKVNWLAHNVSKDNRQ
Sequence of PI3kδ (P27986 whole entry partner): as the sequence (P27986 whole entry partner) above
How it was run: as §1

PI3kβ = PI3kβ (Homo sapiens, UniProt P42338); test: Fluorescent (HTRF) determination of PI3 kinase enzyme activity, PI3Kβ; type: biochemical; conditions: 1 uM
Sequence of PI3kβ (P42338 whole entry): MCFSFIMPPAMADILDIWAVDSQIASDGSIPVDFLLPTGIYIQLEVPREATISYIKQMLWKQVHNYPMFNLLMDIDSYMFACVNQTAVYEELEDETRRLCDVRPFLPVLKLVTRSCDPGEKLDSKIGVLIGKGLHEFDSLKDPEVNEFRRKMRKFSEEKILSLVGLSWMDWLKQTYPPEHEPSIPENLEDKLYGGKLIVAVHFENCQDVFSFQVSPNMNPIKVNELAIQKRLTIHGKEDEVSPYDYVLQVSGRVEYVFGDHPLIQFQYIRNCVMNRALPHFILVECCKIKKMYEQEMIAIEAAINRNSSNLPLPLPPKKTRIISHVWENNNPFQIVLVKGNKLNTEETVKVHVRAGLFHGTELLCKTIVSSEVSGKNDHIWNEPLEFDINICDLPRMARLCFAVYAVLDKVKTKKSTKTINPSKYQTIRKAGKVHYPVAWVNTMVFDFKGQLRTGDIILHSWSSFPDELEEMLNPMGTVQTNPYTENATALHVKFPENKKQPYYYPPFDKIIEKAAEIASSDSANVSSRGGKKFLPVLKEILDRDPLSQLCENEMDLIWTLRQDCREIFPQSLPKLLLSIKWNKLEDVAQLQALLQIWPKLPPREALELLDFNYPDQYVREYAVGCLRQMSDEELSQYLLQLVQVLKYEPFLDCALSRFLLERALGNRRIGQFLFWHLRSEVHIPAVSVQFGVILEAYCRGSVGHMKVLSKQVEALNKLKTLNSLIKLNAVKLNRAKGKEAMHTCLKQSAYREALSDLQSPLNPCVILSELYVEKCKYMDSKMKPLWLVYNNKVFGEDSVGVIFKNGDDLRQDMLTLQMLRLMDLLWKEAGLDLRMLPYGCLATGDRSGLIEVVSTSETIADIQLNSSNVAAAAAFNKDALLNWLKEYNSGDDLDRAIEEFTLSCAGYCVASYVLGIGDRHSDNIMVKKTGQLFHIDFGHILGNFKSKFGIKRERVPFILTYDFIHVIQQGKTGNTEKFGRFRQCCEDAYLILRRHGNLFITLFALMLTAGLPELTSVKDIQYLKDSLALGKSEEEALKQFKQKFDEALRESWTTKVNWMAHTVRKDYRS
Sequence of PI3kβ (P27986 whole entry partner): as the sequence (P27986 whole entry partner) above
How it was run: as §1

[1] = 100 nM (Examples 60-137), 0.1 µM

Sequence of PI3kγ (P48736 whole entry, canonical isoform): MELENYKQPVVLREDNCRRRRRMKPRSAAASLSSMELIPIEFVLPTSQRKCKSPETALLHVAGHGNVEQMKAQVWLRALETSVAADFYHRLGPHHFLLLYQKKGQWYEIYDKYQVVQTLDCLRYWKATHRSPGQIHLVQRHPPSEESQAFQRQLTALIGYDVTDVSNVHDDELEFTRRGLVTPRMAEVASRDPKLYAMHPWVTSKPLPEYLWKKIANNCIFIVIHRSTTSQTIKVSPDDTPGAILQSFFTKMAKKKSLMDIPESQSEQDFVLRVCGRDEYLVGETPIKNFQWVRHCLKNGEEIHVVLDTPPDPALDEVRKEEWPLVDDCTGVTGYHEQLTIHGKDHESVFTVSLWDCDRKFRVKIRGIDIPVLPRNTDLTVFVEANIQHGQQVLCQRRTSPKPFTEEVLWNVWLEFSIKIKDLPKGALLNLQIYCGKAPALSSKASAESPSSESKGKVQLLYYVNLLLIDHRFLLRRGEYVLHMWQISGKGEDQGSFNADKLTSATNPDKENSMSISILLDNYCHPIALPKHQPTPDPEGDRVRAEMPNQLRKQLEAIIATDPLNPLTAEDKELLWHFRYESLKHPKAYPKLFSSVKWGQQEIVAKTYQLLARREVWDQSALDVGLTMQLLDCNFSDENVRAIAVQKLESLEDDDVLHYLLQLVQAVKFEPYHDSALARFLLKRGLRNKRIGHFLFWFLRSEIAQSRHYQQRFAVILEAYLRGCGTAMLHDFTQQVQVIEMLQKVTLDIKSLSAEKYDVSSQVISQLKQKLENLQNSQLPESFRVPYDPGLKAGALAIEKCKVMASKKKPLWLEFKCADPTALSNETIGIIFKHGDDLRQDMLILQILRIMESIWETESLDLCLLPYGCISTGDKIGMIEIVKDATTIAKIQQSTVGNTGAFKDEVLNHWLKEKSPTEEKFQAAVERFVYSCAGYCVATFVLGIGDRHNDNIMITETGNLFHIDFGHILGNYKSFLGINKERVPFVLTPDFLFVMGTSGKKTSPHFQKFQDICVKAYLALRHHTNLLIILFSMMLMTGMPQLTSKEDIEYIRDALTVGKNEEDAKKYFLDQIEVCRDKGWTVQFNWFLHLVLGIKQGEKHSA

| inhibition at 0.1 µM (PI3kγ; 100 nM (Examples 60-137)) | inhibition at 1 µM (PI3kα) | inhibition at 0.1 µM (PI3kδ; 100 nM (Examples 60-137)) | melting point | inhibition at 1 µM (PI3kβ) | % inhibition (PI3kα) 1 uM (PI3kα) | % inhibition (PI3kβ) 1 uM (PI3kβ) | % inhibition (PI3kγ) 100 nM (PI3kγ; [1]) | % inhibition (PI3kδ) 100 nM (PI3kδ; [1]) | inhibition at 0.3 µM (PI3kγ) | inhibition at 0.3 µM (PI3kδ) | SMILES |
| --- | --- | --- | --- | --- | --- | --- | --- | --- | --- | --- | --- |
| 25 to 50% | 0 to 25% | 50 to 75% | 223 to 226 °C | 50 to 75% | – | – | – | – | – | – | Cc1ccc(-c2nn(C(C)c3oc4cccc(F)c4c(=O)c3-c3cccc(F)c3)c3ncnc(N)c23)s1 (stereo not drawn) [Example 62, 2-(1-(4-amino-3-(5-methylthiophen-2-yl)-1H-pyrazolo[3,4-d]pyrimidin-1-yl)ethyl)-5-fluoro-3-(3-fluorophenyl)-4H-chromen-4-one] |
| 50 to 75% | 25 to 50% | 0 to 25% | 211 to 214 °C | 25 to 50% | – | – | – | – | – | – | CC(C)Oc1ccc(-c2nn(C(C)c3oc4cccc(N5CCOCC5)c4c(=O)c3-c3ccccc3)c3ncnc(N)c23)cc1F (stereo not drawn) [Example 121, 2-(1-(4-amino-3-(3-fluoro-4-isopropoxyphenyl)-1H-pyrazolo[3,4-d]pyrimidin-1-yl)ethyl)-5-morpholino-3-phenyl-4H-chromen-4-one] |
| 25 to 50% | – | 25 to 50% | 243 to 246 °C | – | D (D=0 to 25%) | C (C=>25 to 50%) | – | – | – | – | CC(c1oc2cccc(F)c2c(=O)c1-c1cccc(F)c1)n1nc(-c2ccc(N3CCOCC3)c(F)c2)c2c(N)ncnc21 (racemic) [Example 70, (R)/(S)-2-(1-(4-amino-3-(3-fluoro-4-morpholinophenyl)-1H-pyrazolo[3,4-d]pyrimidin-1-yl)ethyl)-5-fluoro-3-(3-fluorophenyl)-4H-chromen-4-one] |
| – | 0 to 25% | – | 116 to 119 °C | 25 to 50% | – | – | C (C=>25 to 50%) | C (C=>25 to 50%) | – | – | CC(C)Oc1ccc(-c2nn(C(C)c3oc4cccc(F)c4c(=O)c3-c3cccc(F)c3)c3ncnc(N4CCOCC4)c23)cc1F (stereo not drawn) [Example 85, 5-fluoro-2-(1-(3-(3-fluoro-4-isopropoxyphenyl)-4-morpholino-1H-pyrazolo[3,4-d]pyrimidin-1-yl)ethyl)-3-(3-fluorophenyl)-4H-chromen-4-one] |
| 0 to 25% | 0 to 25% | 50 to 75% | 260 to 262 °C | 50 to 75% | – | – | – | – | – | – | CC(c1oc2cccc(F)c2c(=O)c1-c1cccc(F)c1)n1nc(-c2ccc(N3CCOCC3)c(Cl)c2)c2c(N)ncnc21 (single isomer, unassigned) [Example 127] |
| – | 50 to 75% | – | 221 to 223 °C | 50 to 75% | – | – | – | – | 50 to 75% | 50 to 75% | CC(C)Cc1ccc(-c2nn(C(C)c3oc4cccc(F)c4c(=O)c3-c3cccc(F)c3)c3ncnc(N)c23)cc1 (stereo not drawn) [Example 49, 2-(1-(4-amino-3-(4-isobutylphenyl)-1H-pyrazolo[3,4-d]pyrimidin-1-yl)ethyl)-5-fluoro-3-(3-fluorophenyl)-4H-chromen-4-one] |
| 50 to 75% | 50 to 75% | 50 to 75% | 183 to 186 °C | 0 to 25% | – | – | – | – | – | – | Cc1n[nH]c2cc(-c3nn(C(C)c4oc5cccc(F)c5c(=O)c4-c4cccc(F)c4)c4ncnc(N5CCOCC5)c34)ccc12 (stereo not drawn) [Example 112, 5-fluoro-3-(3-fluorophenyl)-2-(1-(3-(3-methyl-1H-indazol-6-yl)-4-morpholino-1H-pyrazolo[3,4-d]pyrimidin-1-yl)ethyl)-4H-chromen-4-one] |
| 25 to 50% | 0 to 25% | 25 to 50% | 193 to 196 °C | 25 to 50% | – | – | – | – | – | – | CC(c1oc2cccc(F)c2c(=O)c1-c1cccc(F)c1)n1nc(-c2ccc(CN3CCOCC3)s2)c2c(N)ncnc21 (stereo not drawn) [Example 76, 2-(1-(4-amino-3-(5-(morpholinomethyl)thiophen-2-yl)-1H-pyrazolo[3,4-d]pyrimidin-1-yl)ethyl)-5-fluoro-3-(3-fluorophenyl)-4H-chromen-4-one] |
| – | 0 to 25% | – | 211 to 214 °C | 50 to 75% | – | – | – | – | 50 to 75% | 0 to 25% | CC(C)NS(=O)(=O)c1ccc(-c2nn(C(C)c3oc4cccc(F)c4c(=O)c3-c3cccc(F)c3)c3ncnc(N)c23)cc1 (stereo not drawn) [Example 56, 4-(4-amino-1-(1-(5-fluoro-3-(3-fluorophenyl)-4-oxo-4H-chromen-2-yl)ethyl)-1H-pyrazolo[3,4-d]pyrimidin-3-yl)-N-isopropylbenzenesulfonamide] |
